Laboratory results published in patent US4937390A, “Compound useful for the production of 3-deoxy-3-fluoro-myo-inositol” (University of Pittsburgh, priority 1989, dated 1990).

Key:
Format in all cases: cell-based, rat
PC12 cells [1] = experiment: Effect on cell size (protein per cell, Lowry) in PC12 cells; settings: for effect on cell cycle / cell division: chronically treated PC12 cells
Excerpt: As cells grow in culture, the size of an individual cell varies in a fairly predictable way. The size of a cell can be expressed as the amount of protein present per cell. […] Immediately after mitosis, the cell size drops considerably, frequently to levels approximately half of the pre-mitotic level.
By investigating the size of a cell, it is possible to determine at which point within the cell cycle inhibitors of cell replication are exerting their effects. Accordingly, we investigated the effect of the 1- and 3-fluoro-myo-inositol analogs on the size of cells chronically treated with such analogs.
Cells were grown and treated with 1- and 3-fluoro-myo-inositol analogs as described in Example XIII. On the days indicated, cells were gently harvested without disruption, and the number of cells counted in triplicate in a cell counting chamber. Following determination of the number of cells per sample, the remainder of the cells were pelleted in a microcentrifuge as described hereinabove, and the protein in the sample was determined by the method of Lowry. Thus, it was possible to derive from these two data sets the amount of protein per cell, which is expressed as nanograms of protein per cell, as indicated in Table 3: […]

PC12 cells [2] = experiment: Uptake and incorporation of [3H]myo-inositol into PC12 cells following treatment with inositol analogs; settings: for Bound [3H]myo-inositol (incorporated into membranes) / Free [3H]myo-inositol (cytoplasm): one hour [3H]myo-inositol
Description: Since myo-inositol must be incorporated into the cellular plasma membranes in order for it to serve its role as a second messenger, we therefore verified the ability of the 1- and 3-fluoro-myo-inositol analogs to perturb the incorporation of myo-inositol into cellular plasma membranes by the enzyme […] CDP-diacylglycerol-inositol phosphatidylytransferase (phosphatidylinositolsynthesis).
These tests were conducted by treating cells for either 1, 3, 5, or 7 days with the myo-inositol analogs, followed by a brief exposure to radiolabeled myo-inositol ([^3 H]myo-inositol). The extent of incorporation of tritiated myo-inositol would, therefore, reflect the extent to which phosphatidylinositol and its phosphorylated analogs are deficient in the cellular plasma membranes.
Cells were grown as described hereinabove. Twenty-four hours after plating, the medium was changed and cells were exposed to either inositol free medium (Control 2) or medium containing either the 1- or the 3-fluoro-myo-inositol analog. At four different time points --1, 3, 5, and 7 days--cells were tested for their ability to incorporate radiolabeled [^3 H]myo-inositol. This test was conducted by removing the medium and replacing it with RPMI medium (both myo-inositol and serum free) containing only [^3 H]myo-inositol. The cells were exposed to this medium for a period of one hour, following which they were washed three times with phosphate-buffered saline containing excess unlabeled myo-inositol (10 mM). Cells were lysed by treatment with trichloroacetic acid (TCA) and sonicated to insure complete disruption. The cellular homogenate was then collected and spun in a microfuge tube at 12,000 r.p.m. for 15 min. Samples from both the pellet and supernatant were then obtained and the levels of radioactivity in each were determined. Radioactivity in the supernatant corresponded to the amount of free [^3 H]myo-inositol in the cytoplasm of the cell, whereas the radioactivity present in the TCA-precipated pellet represented [^3 H]myo-inositol incorporated into the cellular plasma membranes.
Cells were treated for the indicated time periods with the inositol
analogs, and then exposed for one hour to [^3 H]myoinositol. Numbers
represent DPM/10^6 cells.

PC12 cells [3] = experiment: Cell growth inhibition (cell counts), dose response and time course in PC12 cells; settings: for concentration determined to have maximal effects in the dose response study / inhibition of cell replication / Cell Number / potency at inhibiting cell replication relative to the 3-fluoro-myo-inositol analog: PC12 cells; for concentration determined to have maximal effects in the dose response study: cell replication; for inhibition of cell replication: dose response study, maximal effect; for inhibition of cell replication / Cell Number: five days
Description: The biological effects of the 3-fluoro and 1-fluoro myo-inositol analogs were tested in PC12 cells, a cell line derived from a rat pheochromocytoma, which has been widely used to study the effects of various growth factors and […]., Adv. Cell Neurobiol., 3, 373-414, (1982), the disclosure of which is incorporated herein by reference.
PC12 cells were seeded at a density of 3.3×10^5 cells/cm^2 in plastic culture dishes and grown at 37° C. in a humidified atmosphere of 95% air/5% CO2. The basal medium used in these experiments was RPMI-1640 medium (Gibco). In some experiments a specially formulated inositol-free RPMI-1640 medium (Gibco) was used. This basal medium was supplemented with either normal or extensively dialyzed horse serum (10%) and fetal calf serum (5%) (Gibco). Some control dishes were grown in complete RPMI medium, i.e. with myo-inositol and containing non-dialyzed serum (Control 1) and some control dishes were grown in inositol deficient medium, i.e., RPMI without inositol and with dialyzed serum (Control 2). The inositol analogs were dissolved in distilled H2 O and added to the culture medium at the indicated concentrations.
Cell counts were performed by removing the medium, washing the cells gently in PBS with calcium, detaching the cells by 15 minute induction in PBS/EDTA (0.5 mM) containing 0.1% trypsin, and counting in a hemocytometer.
A dose-response study was performed by growing cells in the presence of certain concentrations of the 3-fluoro and the 1-fluoro-myo-inositol analogs. At the end of five days, the cells were counted by the means described hereinabove.
The time course effect on cell replication was then examined, using the concentration of 1-fluoro and 3-fluoro myo-inositol analogs determined to have maximal effects in the dose response study of Table 1. (1 mM and 5 mM for the 1-fluoro and 3-fluoro-myo-inositol analogs, respectively).

SMILES	effect on cell cycle / cell division (PC12 cells [1])	Cell size (protein per cell) (PC12 cells [1]; treatment duration 1 day)	Cell size (protein per cell) (PC12 cells [1]; treatment duration 3 days)	Cell size (protein per cell) (PC12 cells [1]; treatment duration 5 days)	Cell size (protein per cell) (PC12 cells [1]; treatment duration 7 days)	Bound [3H]myo-inositol (incorporated into membranes) (PC12 cells [2]; Day 1 of treatment)	Free [3H]myo-inositol (cytoplasm) (PC12 cells [2]; Day 1 of treatment)	Bound [3H]myo-inositol (incorporated into membranes) (PC12 cells [2]; Day 3 of treatment)	Free [3H]myo-inositol (cytoplasm) (PC12 cells [2]; Day 3 of treatment)	Bound [3H]myo-inositol (incorporated into membranes) (PC12 cells [2]; Day 5 of treatment)	Free [3H]myo-inositol (cytoplasm) (PC12 cells [2]; Day 5 of treatment)	Bound [3H]myo-inositol (incorporated into membranes) (PC12 cells [2]; Day 7 of treatment)	Free [3H]myo-inositol (cytoplasm) (PC12 cells [2]; Day 7 of treatment)	concentration determined to have maximal effects in the dose response study (PC12 cells [3])	inhibition of cell replication (PC12 cells [3])	Cell Number (PC12 cells [3]; 0.01 mM)	Cell Number (PC12 cells [3]; 0.03 mM)	Cell Number (PC12 cells [3]; 0.10 mM)	Cell Number (PC12 cells [3]; 0.30 mM)	Cell Number (PC12 cells [3]; 1.0 mM)	other results
O[C@@H]1[C@@H](O)[C@@H](O)[C@@H](F)[C@H](O)[C@H]1O [1-deoxy-1-fluoro-myo-inositol]	arrested in a pre-mitotic state (termed late G2)	0.082 ± 0.01 nanograms protein/cell	0.135 ± 0.01 nanograms protein/cell	0.160 ± 0.01 nanograms protein/cell	0.168 ± 0.02 nanograms protein/cell	392 ± 16 DPM/10^6 cells	8365 ± 787 DPM/10^6 cells	4614 ± 141 DPM/10^6 cells	4751 ± 291 DPM/10^6 cells	2143 ± 314 DPM/10^6 cells	4295 ± 627 DPM/10^6 cells	3726 ± 588 DPM/10^6 cells	7569 ± 757 DPM/10^6 cells	1 mM	approximately 50%	4.53 ± 0.13 × 10^5 cells/dish	4.18 ± 0.07 × 10^5 cells/dish	3.71 ± 0.03 × 10^5 cells/dish	3.29 ± 0.08 × 10^5 cells/dish	2.73 ± 0.13 × 10^5 cells/dish	cell size relative to controls (PC12 cells [1]; cells arrested in pre-mitotic state): approximately 2 fold; Time course cell counts (PC12 cells [3]; Day 0, 1 mM, inositol-free medium): 1.46 × 10^5 cells per dish; Time course cell counts (PC12 cells [3]; Day 1, 1 mM): 2.10 ± 0.03 cells per dish, × 10^5; Time course cell counts (PC12 cells [3]; Day 3, 1 mM): 4.5 ± 0.10 cells per dish, × 10^5; Time course cell counts (PC12 cells [3]; Day 5, 1 mM): 8.4 ± 0.7 cells per dish, × 10^5; Time course cell counts (PC12 cells [3]; Day 7, 1 mM): 10.8 ± 0.6 cells per dish, × 10^5; Cell Number (PC12 cells [3]; 3.0 mM): 2.67 ± 0.09 × 10^5 cells/dish; Cell Number (PC12 cells [3]; 10.0 mM): 2.68 ± 0.07 × 10^5 cells/dish; Cell Number (PC12 cells [3]; 30.0 mM): 2.72 ± 0.03 × 10^5 cells/dish; potency at inhibiting cell replication relative to the 3-fluoro-myo-inositol analog (PC12 cells [3]; listed as 1-deoxy-1-deoxy-1-fluoro-myo-inositol): about five-fold; potency at inhibiting cell replication relative to the 3-fluoro-myo-inositol analog (PC12 cells [3]; listed as 1-fluoro-myo-inositol analog): 5 fold
O[C@@H]1[C@@H](O)[C@H](O)[C@@H](F)[C@@H](O)[C@H]1O [3-deoxy-3-fluoro-myo-inositol]	continued to increase steadily in size without undergoing cell division	0.086 ± 0.01 nanograms protein/cell	0.259 ± 0.01 nanograms protein/cell	0.320 ± 0.01 nanograms protein/cell	0.343 ± 0.03 nanograms protein/cell	354 ± 10 DPM/10^6 cells	3326 ± 253 DPM/10^6 cells	761 ± 42 DPM/10^6 cells	2929 ± 189 DPM/10^6 cells	414 ± 52 DPM/10^6 cells	2900 ± 383 DPM/10^6 cells	676 ± 113 DPM/10^6 cells	4095 ± 161 DPM/10^6 cells	5 mM	approximately 50%	4.60 ± 0.24 × 10^5 cells/dish	4.49 ± 0.07 × 10^5 cells/dish	4.21 ± 0.05 × 10^5 cells/dish	3.87 ± 0.05 × 10^5 cells/dish	3.21 ± 0.08 × 10^5 cells/dish	cell size relative to control cells (PC12 cells [1]; by day seven): about 3.5 times; level of radioactivity-labeled myo-inositol incorporated into the cellular plasma membranes (PC12 cells [2]): quite low; Time course cell counts (PC12 cells [3]; Day 0, 5 mM, inositol-free medium): 1.46 × 10^5 cells per dish; Time course cell counts (PC12 cells [3]; Day 1, 5 mM): 2.12 ± 0.02 cells per dish, × 10^5; Time course cell counts (PC12 cells [3]; Day 3, 5 mM): 4.2 ± 0.1 cells per dish, × 10^5; Time course cell counts (PC12 cells [3]; Day 5, 5 mM): 7.6 ± 0.1 cells per dish, × 10^5; Time course cell counts (PC12 cells [3]; Day 7, 5 mM): 10.6 ± 0.6 cells per dish, × 10^5; Cell Number (PC12 cells [3]; 3.0 mM): 2.53 ± 0.04 × 10^5 cells/dish; Cell Number (PC12 cells [3]; 10.0 mM): 2.50 ± 0.03 × 10^5 cells/dish; Cell Number (PC12 cells [3]; 30.0 mM): 2.36 ± 0.01 × 10^5 cells/dish
